# Reference: BindingDB's records for PubMed 33764065 (Niddk, 2021)
# pIC50, pKi: −log10 of the molar value.
# Legend:
# [1] = Inhibition of human non pancreatic secretory phospholipase A2 incubated for 30 mins by plate reader analysis
# [2] = Binding affinity to bovine brain membrane BzR assessed as inhibition constant
SMILES,pIC50 [1],pKi [2]
COc1ccc2c(c1)c(CC(=O)O)c(C)n2Cc1ccccc1 [1-BENZYL-5-METHOXY-2-METHYL-1H-INDOL-3-YL)-ACETIC ACID],4.87,–
O=C(NCc1ccccc1)C(=O)c1c[nH]c2ccc([N+](=O)[O-])cc12 [N-benzyl-2-(5-nitro-1H-indol-3-yl)-2-oxoacetamide],–,6.93
